Measured values published in PMC10252614 (International Journal of Molecular Sciences, 2023).
Entries after “also recorded” stand apart in the source; their conditions may differ.

How the values were obtained:
[1] = system: differentiated SH-SY5Y cells; assay: MTT viability of differentiated SH-SY5Y; type: cell-based, human; details: concentration equal to IC50 from undifferentiated model, 24 h
Description: Then, the differentiated SH-SY5Y cells were treated with concentrations corresponding to the IC50 values obtained from the cytotoxicity measurement using undifferentiated SH-SY5Y cells. Cells were exposed to a tested compound for 24 h. Then, the medium was replaced by a medium containing 10 μM of MTT and cells were allowed to produce formazan for another, approximately 3 h under surveillance. Thereafter, the medium was aspirated and purple crystals of MTT formazan were dissolved in 100 μL DMSO under shaking. Cell viability was assessed spectrophotometrically by the amount of formazan produced. Absorbance was measured at 570 nm with 650 nm reference wavelength on Spark (Tecan Group Ltd., Männedorf, Switzerland). The IC50 value was then calculated from the control-subtracted triplicates using non-linear regression (four parameters) of GraphPad Prism 9 software. Final IC50 and SEM values were obtained as a mean of three.

in vitro = details: human, undifferentiated SH-SY5Y cells
hMAO-B = target: T1, hMAO-B (Homo sapiens, UniProt P27338); assay: in vitro inhibition of hMAO-B, kynuramine fluorescence assay; type: biochemical
T1 construct: purchased Merck (Prague, Czech Republic)
T1 sequence (P27338 1-520): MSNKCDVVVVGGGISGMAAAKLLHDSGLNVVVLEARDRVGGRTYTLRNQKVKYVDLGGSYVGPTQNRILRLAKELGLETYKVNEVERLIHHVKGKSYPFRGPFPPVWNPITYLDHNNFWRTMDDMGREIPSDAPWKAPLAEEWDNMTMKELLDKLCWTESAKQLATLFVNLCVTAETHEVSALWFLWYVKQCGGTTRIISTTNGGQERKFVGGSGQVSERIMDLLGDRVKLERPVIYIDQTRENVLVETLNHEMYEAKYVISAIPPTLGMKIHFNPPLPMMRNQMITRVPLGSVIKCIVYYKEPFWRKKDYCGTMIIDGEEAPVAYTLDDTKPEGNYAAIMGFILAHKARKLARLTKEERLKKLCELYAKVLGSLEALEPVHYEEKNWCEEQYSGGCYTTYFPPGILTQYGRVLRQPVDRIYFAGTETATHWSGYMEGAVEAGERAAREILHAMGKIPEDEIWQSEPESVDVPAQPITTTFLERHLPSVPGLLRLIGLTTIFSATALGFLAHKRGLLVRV
Description: The hMAO-A and hMAO-B enzymes were purchased from Merck (Prague, Czech Republic). […] The mixture was pre-incubated at 37 °C for 15 min and subsequently substrate kynuramine was added to the final concentration of 100 µM. The final volume of reaction mixture was 0.1 mL. The whole reaction mixture was incubated at 37 °C for 30 min. The reaction was stopped by the addition of 20 µL 4M NaOH.

[2] = PAMPA prediction of BBB permeability; type: in vitro ADME; details: for CNS (+/−): PAMPA class; for Papp: read-out: Pe ± SEM
Description: The assay validation was performed using standard compounds whose CNS status is experimentally known from in vivo conditions.
PAMPA (the parallel artificial membrane-permeability assay) is a high-throughput screening tool applicable for prediction of the passive transport of potential drugs across the blood–brain barrier (BBB). In this study, it was used as a non-cell-based in vitro assay carried out in a coated 96-well membrane filter. The filter membrane of the donor plate was coated with PBL (Polar Brain Lipid, Avanti, USA) in dodecane (4 µL of 20 mg/mL PBL in dodecane) and the acceptor well was filled with 300 µL of PBS (pH 7.4; VA). The tested compounds were dissolved first in DMSO and subsequently diluted with PBS (pH 7.4) to final concentrations of 50–100 μM in the donor wells. […] About 300 µL of the donor solution was added to the donor wells (VD) and the donor filter plate was carefully put on the acceptor plate so that the coated membrane was “in touch” with both the donor solution and acceptor buffer. In principle, the test compound diffused from the donor well through the lipid membrane (Area = 0.28 cm^2) to the acceptor well. The concentration of the drug in both the donor and acceptor wells were assessed after 3, 4, 5, and 6 h of incubation in quadruplicate using the UV plate reader Spark (Tecan Group Ltd., Männedorf, Switzerland) at the maximum absorption wavelength of each compound. In addition, the solution of the theoretical compound concentration, simulating the equilibrium state established if the membrane were ideally permeable, was prepared and assessed as well.

human AChE (hAChE) = target: T2, human AChE (hAChE) (Homo sapiens, UniProt P22303); assay: hAChE inhibition, modified Ellman's method; type: biochemical; details: read-out: % of AChE inhibition
T2 construct: made in house
Description: N-Methylpropargylamine-quinazolines were tested for their inhibitory potency against human AChE (hAChE) and human BChE (hBChE) enzymes using the modified spectrophotometric method of Ellman et al..
The human recombinant BChE and AChE were prepared at the Department of Toxicology and Military Pharmacy (Faculty of Military Health Sciences, Hradec Kralove, Czech Republic). 5,5′-dithiobis(2-nitrobenzoic acid) (Ellman’s reagent, DTNB), phosphate buffer (PB, pH 7.4), acetylthiocholine (ATC) and butyrylthiocholine (BTC), were purchased from Sigma-Aldrich, Prague, Czech Republic. For measuring purposes, polystyrene Nunc 96-well microplates with a flat-bottom shape (ThermoFisher Scientific, Waltham, MA, USA) were utilized. All the assays were carried out in 0.1 M KH2PO4/K2HPO4 buffer, pH 7.4. Enzyme solutions were prepared at 2.0 units/mL in 2 mL aliquots. The assay medium consisted of a 0.1 M phosphate buffer (pH 7.4), 0.01 M DTNB, the enzyme, and 0.01 M substrate (ATC/BTC iodide solution). Concentration 1 µM was tested and the % of inhibition was calculated. Tested compounds were pre-incubated for 5 min. The reaction was started by immediate addition of 20 μL of the substrate. […] Each concentration was assayed in triplicate. Software GraphPad Prism 5 (San Diego, CA, USA) was used for the statistical data evaluation.

SH-SY5Y cells = assay: nuclear condensation and fragmentation, Hoechst 33258 assay; type: cell-based, human; details: 100 µM, 24 h
Description: Thus, SH-SY5Y cells were incubated with II-6h and III-6a (10 and 100 µM) for 24 h. After the treatment, dehydrogenase activity, glutathione levels, nuclear condensation and fragmentation, and ATP levels were measured (Figure 7). […] The decrease in dehydrogenase activity was found in cells treated with 100 µM II-6h (p < 0.001).
To measure nuclear condensation and fragmentation in intact cells, we used fluorescence dye Hoechst 33258 (H33258, 1 mg/mL; Merck, USA). After cell treatment with II-6h (10–100 µM) and III-6a (10–100 µM), the cells grown in a 96-well plate were centrifuged (5 min; 8000g; RT). Then, 70 µL of a supernatant was replaced with 70 µL of PBS 1× and 10 µL of H33258 solution was added to a well. The final concentrations of H33258 in a well was 2 µg/mL. Then, the cells were incubated with H33258 for 5 min and spectrofluorometric measurement was performed at Ex/Em = 352/461 nm using SPARK microplate reader (Tecan, Austria) while incubated at 37 °C. The samples were measured at least in triplicates. After background subtraction, the fluorescence signal was presented in RFU as mean ± SEM.

T2 sequence (P22303 32-614): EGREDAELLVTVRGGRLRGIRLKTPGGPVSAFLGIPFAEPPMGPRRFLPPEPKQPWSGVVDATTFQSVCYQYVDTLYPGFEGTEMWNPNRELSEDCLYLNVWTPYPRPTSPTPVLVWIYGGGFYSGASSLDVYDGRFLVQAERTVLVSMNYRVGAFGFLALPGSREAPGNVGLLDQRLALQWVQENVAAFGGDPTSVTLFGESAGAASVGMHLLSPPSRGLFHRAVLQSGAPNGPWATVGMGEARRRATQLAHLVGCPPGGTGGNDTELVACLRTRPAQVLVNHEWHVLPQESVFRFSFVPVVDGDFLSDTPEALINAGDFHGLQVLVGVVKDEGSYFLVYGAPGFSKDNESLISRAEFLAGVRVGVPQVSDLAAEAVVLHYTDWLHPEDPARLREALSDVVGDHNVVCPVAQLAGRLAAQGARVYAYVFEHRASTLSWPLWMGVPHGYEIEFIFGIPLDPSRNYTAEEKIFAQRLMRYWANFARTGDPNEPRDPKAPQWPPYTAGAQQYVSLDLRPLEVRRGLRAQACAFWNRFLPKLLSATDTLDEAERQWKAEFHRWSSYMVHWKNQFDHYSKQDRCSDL

Structure (SMILES)	effect on viability of differentiated SH-SY5Y (in words) [1]	IC50 at 24 h (in vitro) [µM]	IC50 (hMAO-B) [µM]	selectivity profile hMAO-A vs hMAO-B (in words) (hMAO-B)	SI for MAO-B (hMAO-B; IC50(MAO-A)/IC50(MAO-B))	BBB penetration by PAMPA (in words) [2]	CNS (+/−) [2]	Papp ([2]; PAMPA, PBS pH 7.4) [×10⁻⁶ cm/s]	inhibition at 1 µM (human AChE (hAChE)) [%]	nuclear condensation and fragmentation (in words) (SH-SY5Y cells)	Pe ± SEM ([2]; PAMPA, PBS pH 7.4) [×10⁻⁶ cm/s]
C#CCN(C)c1nc(NC2CCCCC2)c2ccccc2n1 [I-6h, N4-cyclohexyl-N2-methyl-N2-(prop-2-yn-1-yl)quinazoline-2,4-diamine]	no difference from the undifferentiated model	53.2 ± 3.03	8.69 ± 0.12	inhibitor of both hMAO isoforms, with a preference for hMAO-B inhibition	0.10	high probability of crossing BBB via passive diffusion	CNS (+) (CNS (+) (high BBB permeation predicted): Pe (×10^−6 cm s^−1) > 4.0)	5.61 ± 1.01	4	–	–
C#CCN(C)c1nc(NCCCC)c2ccccc2n1 [I-6e, N4-butyl-N2-methyl-N2-(prop-2-yn-1-yl)quinazoline-2,4-diamine]	no difference from the undifferentiated model	67.95 ± 0.22	–	hMAO-A selective inhibitors	–	high probability of crossing BBB via passive diffusion	CNS (+) (CNS (+) (high BBB permeation predicted): Pe (×10^−6 cm s^−1) > 4.0)	7.37 ± 1.22	3	–	–
C#CCN(C)c1nc(N)c2cc(OC)ccc2n1 [III-6a, 6-methoxy-N2-methyl-N2-(prop-2-yn-1-yl)quinazoline-2,4-diamine]	no difference from the undifferentiated model	38.6 ± 0.82	–	hMAO-A selective inhibitors	–	did not penetrate the artificial barrier	CNS (−) (CNS (−) (low BBB permeation predicted): Pe (×10^−6 cm s^−1) < 2.0)	–	9	significant increase	0
C#CCN(C)c1nc(NC2CCCCC2)c2ccc(Cl)cc2n1 [II-6h, 7-chloro-N4-cyclohexyl-N2-methyl-N2-(prop-2-yn-1-yl)quinazoline-2,4-diamine]	did not exhibit any cytotoxic effects; also recorded: lost the cytotoxic effect	35 ± 1.53	0.33 ± 0.02	hMAO-B selective inhibitors	–	high probability of crossing BBB via passive diffusion	CNS (+) (CNS (+) (high BBB permeation predicted): Pe (×10^−6 cm s^−1) > 4.0)	9.39 ± 1.17	3	significant increase	–
